According to patent US7629318B2, “Immunosuppressant compounds, methods and uses related thereto” (priority 2002, dated 2009):
Numbered stars: 1 amine (or outer) side, 2 acyl side, 3 side chain; on linkers, the order of the positions; unused ones are H or OH. Square brackets hold non-standard residues; d marks the D form. Peptide text beside a SMILES is read from it. * marks the point of attachment. ξ: configuration not given here. Gly(1-amidinopiperidin-4-yl) = N=C(N)N1CCC([C@H](N)C(=O)O)CC1; X1 = CC(C)c1oc([C@H](CO)N[*:1])nc1C(=O)[*:2]; Pro(3R-Ph) = O=C(O)[C@H]1NCC[C@@H]1c1ccccc1; Met(O) = CS(=O)CC[C@H](N)C(=O)O; Tic = O=C(O)[C@@H]1Cc2ccccc2CN1; Cha = N[C@@H](CC1CCCCC1)C(=O)O; NHPhenethyl = c1ccc(CCN*)cc1; NMe(benzyl) = CN(Cc1ccccc1)*; ξDisc = O=C(O)C1NCc2ccccc21; Nle = CCCC[C@H](N)C(=O)O; X2 = OCCOCCN(Cc1ccccc1)*; NHBn = c1ccc(CN*)cc1; X3 = OCCOCCN*

What was measured:
[1] = molecular target: DR4Dw14 (DRA1*0101 DRB1*0404) (Homo sapiens, UniProt P01903+P01911, A100R/A169T/F76Y/I96L/K127E/L162R/M171V/N62H/P40V/Q125Y/R42H/S133A/S149N/S66Y/V209L/W38E); test: Competitive binding to MHC-II protein DR4Dw14; settings: 0404; read-out: Protein binding IC50 (nM) 0404
Summary of the method: (§1)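 Each MHC-II allele incubated with compound 16 hours at room temperature in duplicate; controls lacked compound, or both compound and MHC-II. Complexes captured 2 h at 4 °C, bound biotinylated peptide detected via europium-streptavidin and DELFIA enhancement, time-resolved fluorescence read at ex 340/em 613 (615) nm.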

[2] = molecular target: T1, Priess (DR4Dw4: DRA1*0101 DRB1*0401) cells (Homo sapiens, UniProt P01903+P01911, A100K/A169T/F76Y/I96L/K127E/L162R/M171V/N62H/P40V/Q125Y/R42H/S133A/S149N/S66Y/V115G/V209L/W38E); test: Competitive binding to MHC II proteins expressed on Priess cells; assay type: cell-based
T1 construct: MHC II Proteins Expressed on PRIESS and LG2 Cells; endogenous in cells; host or cells: Priess cells
Experimental: For use in the binding assay the cells were re-suspended in medium containing 1% FCS at a density of 2.5×10^6 cells/ml.
The assay was performed in sterile 96 well polystyrene microtiter plates. A 10 fold dilution series of compounds (16 nM-1615 μM) in 1% FCS was prepared from 5 or 10 mM compound stock solutions in 10% DMSO/water. 50 μl of each compound dilution were added in duplicates to 50 μl of a 16 μM solution of indicator peptide in 1% FCS. Cell binding was initiated by adding 100 μl of 2.5×10^6 cells/ml 1% FCS to each well. Controls were included containing the DMSO concentration present in the solution with the highest compound concentration. The cells were incubated at 37° C., 6% CO2. After 4 hours the cells were washed with 200 μl PBS and lysed in 200 μl lysis buffer (50 mM sodium phosphate, 150 mM sodium chloride, 1% (w/v) NP-40, 25 mM iodoacetamide, 1 mM PMSF, 3.1% protease inhibitor cocktail: 0.32 g/l of Chymostatin, Antipain, Pepstatin A, Soybean trypsin inhibitor and Leupeptin each, pH 7.5) for 10 min.
After washing with PBS, 190 μl of cell lysate were transferred to the appropriate wells of the capture plate and incubated for 2 h at 4° C. The wells were washed six times with 200 μl/well cooled (4 to 8° C.) of 1×DELFIA wash (Wallac-ADL-GmbH, Freiburg), incubated with 100 μl of cooled Europium-streptavidin conjugate (Wallac-ADL-GmbH, Freiburg; diluted 1/1000 with DELFIA assay buffer) for 30 minutes at 4° C., again washed six times with cooled 1×DELFIA wash and, finally, incubated with 200 μl cooled DELFIA enhancement solution (Wallac-ADL-GmbH, Freiburg) for one hour at room temperature before reading the time-resolved europium fluorescence at λex Eu^3+: 340 nm and λem Eu^3+: 613 (615) nm (Wallac Victor^2 1420 Multilabel Counter, Wallac-ADL-GmbH, Freiburg).

[3] = molecular target: Cathepsin D (EC 3.4.23.5 from bovine spleen) (Bos taurus, UniProt P80209)
[4] = molecular target: DR4Dw4 (DRA1*0101 DRB1*0401) (Homo sapiens, UniProt P01903+P01911, A100K/A169T/F76Y/I96L/K127E/L162R/M171V/N62H/P40V/Q125Y/R42H/S133A/S149N/S66Y/V115G/V209L/W38E); test: Competitive binding to MHC-II protein DR4Dw4
Summary of the method: as §1

[5] = molecular target: DR1 (DRA1*0101 DRB1*0101) (Homo sapiens, UniProt P01903+P01911, A100R/D57E/F55L/F60I/F76Y/I96L/L162R/M171V/P40L/Q125E/R42F/V115G/Y59C); test: Competitive binding to MHC-II protein DR1; settings: Protein binding IC50 (nM) 0101, 0101
Summary of the method: as §1

SMILES | IC50 [1] [nM] | IC50 [2] [µM] | Stability (Arbitrary units) Cath D 4 h [3] [Arbitrary units] | IC50 [4] [nM] | IC50 [5] [nM] | binding to MHC class II protein expressed on the surface of Priess cells ([2]; compared to the Arg-containing equivalent)
CCCC[C@H](NC(=O)C1c2ccccc2CN1C(=O)[C@@H](NC(=O)[C@H](CC1CCCCC1)NC(C)=O)C1CCN(C(=N)N)CC1)C(=O)N(C)Cc1ccccc1 (single isomer, unassigned) [Compound P78-1] | 1400 | 9.8 | 104 | 2300 | 550 | –
CCCC[C@H](NC(=O)[C@@H]1Cc2ccccc2CN1C(=O)[C@@H](NC(=O)[C@H](CC1CCCCC1)NC(C)=O)C1CCN(C(=N)N)CC1)C(=O)N(CCOCCO)Cc1ccccc1 [Compound P101, Ac-Cha-Gpg-Tic-Nle-N(Bn)CH2CH2OCH2CH2OH] (Ac-[Cha][Gly(1-amidinopiperidin-4-yl)][Tic][Nle]-X2) | 650 | – | 106 | 1500 | 500 | –
CSCC[C@H](NC(=O)[C@@H]1Cc2ccccc2CN1C(=O)[C@H](CCCNC(=N)N)NC(=O)[C@H](CC1CCCCC1)NC(C)=O)C(=O)N1CC[C@H](c2ccccc2)[C@H]1C(N)=O [Compound P31, Ac-Cha-Arg-Tic-Met-βPhPro-NH2] (Ac-[Cha]R[Tic]M[Pro(3R-Ph)]-NH2) | 850 | 3.7 | 95 | 280 | 290 | –
CCCC[C@H](NC(=O)[C@@H]1Cc2ccccc2CN1C(=O)[C@H](CCCNC(=N)N)NC(=O)[C@H](CC1CCCCC1)NC(C)=O)C(=O)N1CC[C@H](c2ccccc2)[C@H]1C(=O)N[C@@H](CO)c1nc(C(=O)N(C)C)c(C(C)C)o1 [Compound P51, Ac-Cha-Arg-Tic-Nle-βPhPro-[S(oxaz)L]-NMe2] (Ac-[Cha]R[Tic][Nle][Pro(3R-Ph)][X1]-NMe2) | 210 | – | 103 | 670 | 400 | –
CCCC[C@H](NC(=O)[C@@H]1Cc2ccccc2CN1C(=O)[C@@H](NC(=O)[C@H](CC1CCCCC1)NC(C)=O)C1CCN(C(=N)N)CC1)C(=O)N(C)Cc1ccccc1 [Compound P74, Ac-Cha-Gpg-Tic-Nle-N(Me)Bn] (Ac-[Cha][Gly(1-amidinopiperidin-4-yl)][Tic][Nle]-{NMe(benzyl)}) | 2200 | 9.2 | 104 | 3400 | 360 | Improved binding
CCCC[C@H](NC(=O)[C@@H]1Cc2ccccc2CN1C(=O)[C@@H](NC(=O)[C@H](CC1CCCCC1)NC(C)=O)C1CCN(C(=N)N)CC1)C(=O)NCCOCCO [Compound P70, Ac-Cha-Gpg-Tic-Nle-N(H)CH2CH2OCH2CH2OH] (Ac-[Cha][Gly(1-amidinopiperidin-4-yl)][Tic][Nle]-X3) | 290 | 8.6 | 112 | 440 | 90 | –
CSCC[C@H](NC(=O)C1c2ccccc2CN1C(=O)[C@@H](NC(=O)[C@H](CC1CCCCC1)NC(C)=O)C1CCN(C(=N)N)CC1)C(=O)N1CC[C@H](c2ccccc2)[C@H]1C(=O)N[C@@H](CO)c1nc(C(=O)N(C)C)c(C(C)C)o1 (stereo partly drawn) [Compound P41-1, Ac-Cha-Gpg-Disc-Met-βPhPro-[S(oxaz)L]-NMe2] (Ac-[Cha][Gly(1-amidinopiperidin-4-yl)][ξDisc]M[Pro(3R-Ph)][X1]-NMe2) | 110 | 3.7 | 103 | 200 | 160 | –
CC(=O)N[C@@H](CC1CCCCC1)C(=O)N[C@H](C(=O)N1Cc2ccccc2C[C@H]1C(=O)N[C@@H](CC[S+](C)[O-])C(=O)N1CC[C@H](c2ccccc2)[C@H]1C(=O)N[C@@H](CO)c1nc(C(=O)N(C)C)c(C(C)C)o1)C1CCN(C(=N)N)CC1 (stereo partly drawn) [Compound P47, Ac-Cha-Gpg-Tic-Met(O)-βPhPro-[S(oxaz)L]-NMe2] (Ac-[Cha][Gly(1-amidinopiperidin-4-yl)][Tic][Met(O)][Pro(3R-Ph)][X1]-NMe2) | 580 | 6.9 | 99 | 180 | 330 | –
CCCC[C@H](NC(=O)[C@@H]1Cc2ccccc2CN1C(=O)[C@@H](NC(=O)[C@H](CC1CCCCC1)NC(C)=O)C1CCN(C(=N)N)CC1)C(=O)NCc1ccccc1 [Compound P68, Ac-Cha-Gpg-Tic-Nle-N(H)Bn] (Ac-[Cha][Gly(1-amidinopiperidin-4-yl)][Tic][Nle]-NHBn) | 2000 | 12 | 105 | 2100 | 600 | –
CSCC[C@H](NC(=O)C1c2ccccc2CN1C(=O)[C@H](CCCNC(=N)N)NC(=O)[C@H](CC1CCCCC1)NC(C)=O)C(N)=O (stereo partly drawn) [Compound P12-1, Ac-Cha-Arg-Disc-Met-NH2] (Ac-[Cha]R[ξDisc]M-NH2) | 860 | 6.7 | 103 | 370 | 430 | –
CSCC[C@H](NC(=O)[C@@H]1Cc2ccccc2CN1C(=O)[C@H](CCCNC(=N)N)NC(=O)[C@H](CC1CCCCC1)NC(C)=O)C(N)=O [Compound P1, Ac-Cha-Arg-Tic-Met-NH2] (Ac-[Cha]R[Tic]M-NH2) | 2300 | 11 | 102 | 1600 | 260 | –
CSCC[C@H](NC(=O)C1c2ccccc2CN1C(=O)[C@@H](NC(=O)[C@H](CC1CCCCC1)NC(C)=O)C1CCN(C(=N)N)CC1)C(N)=O (stereo partly drawn) [Compound P66-1, Ac-Cha-Gpg-Disc-Met-NH2] (Ac-[Cha][Gly(1-amidinopiperidin-4-yl)][ξDisc]M-NH2) | 590 | 7.8 | 101 | 290 | 290 | –
CCCC[C@H](NC(=O)[C@@H]1Cc2ccccc2CN1C(=O)[C@H](CCCNC(=N)N)NC(=O)[C@H](CC1CCCCC1)NC(C)=O)C(=O)N(C)Cc1ccccc1 [Compound P71, Ac-Cha-Arg-Tic-Nle-N(Me)Bn] (Ac-[Cha]R[Tic][Nle]-{NMe(benzyl)}) | – | – | 104 | – | – | –
CCCC[C@H](NC(=O)[C@@H]1Cc2ccccc2CN1C(=O)[C@@H](NC(=O)[C@H](CC1CCCCC1)NC(C)=O)C1CCN(C(=N)N)CC1)C(=O)NCCc1ccccc1 [Compound P69, Ac-Cha-Gpg-Tic-Nle-N(H)CH2CH2Ph] (Ac-[Cha][Gly(1-amidinopiperidin-4-yl)][Tic][Nle]-NHPhenethyl) | 4500 | 11 | 100 | 3600 | 690 | –
CSCC[C@H](NC(=O)[C@@H]1Cc2ccccc2CN1C(=O)[C@@H](NC(=O)[C@H](CC1CCCCC1)NC(C)=O)C1CCN(C(=N)N)CC1)C(=O)N(CCOCCO)Cc1ccccc1 [Compound P102, Ac-Cha-Gpg-Tic-Met-N(Bn)CH2CH2OCH2CH2OH] (Ac-[Cha][Gly(1-amidinopiperidin-4-yl)][Tic]M-X2) | 2100 | – | 120 | 1700 | 580 | –
